Laboratory results as given in patent US20260125400A1, “TYK2 DEGRADERS AND USES THEREOF” (Kymera Therapeutics, Inc., priority 2023, published 2026).
Where two headings read alike, the source gives them in different places.

Molecular target: T1, TYK2 (Homo sapiens, UniProt P29597)
T1 construct: Degradation of TYK2 in cells was quantitatively measured using Meso Scale Discovery (MSD) technology; endogenous in cells; host or cells: OCI-LY10
Experiment: TYK2 MSD degradation in OCI-LY10 cells
Type: cell-based
Details: 4 to 24 hours incubation; for DC50: read-out: TYK2 MSD OCI-LY10 Rel-DC50
How it was run: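 OCI-LY10 cells were treated with 9-dose 1:3 series (top 1 to 10 μM final) for 4 to 24 hours at 37° C. Lysate TYK2 quantified by MSD sandwich immunoassay; DC50 and Dmax from four-parameter inhibitor vs. response fit.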

[1] = TYK2 degradation in OCI-LY10 cells

T1 sequence (P29597 whole entry): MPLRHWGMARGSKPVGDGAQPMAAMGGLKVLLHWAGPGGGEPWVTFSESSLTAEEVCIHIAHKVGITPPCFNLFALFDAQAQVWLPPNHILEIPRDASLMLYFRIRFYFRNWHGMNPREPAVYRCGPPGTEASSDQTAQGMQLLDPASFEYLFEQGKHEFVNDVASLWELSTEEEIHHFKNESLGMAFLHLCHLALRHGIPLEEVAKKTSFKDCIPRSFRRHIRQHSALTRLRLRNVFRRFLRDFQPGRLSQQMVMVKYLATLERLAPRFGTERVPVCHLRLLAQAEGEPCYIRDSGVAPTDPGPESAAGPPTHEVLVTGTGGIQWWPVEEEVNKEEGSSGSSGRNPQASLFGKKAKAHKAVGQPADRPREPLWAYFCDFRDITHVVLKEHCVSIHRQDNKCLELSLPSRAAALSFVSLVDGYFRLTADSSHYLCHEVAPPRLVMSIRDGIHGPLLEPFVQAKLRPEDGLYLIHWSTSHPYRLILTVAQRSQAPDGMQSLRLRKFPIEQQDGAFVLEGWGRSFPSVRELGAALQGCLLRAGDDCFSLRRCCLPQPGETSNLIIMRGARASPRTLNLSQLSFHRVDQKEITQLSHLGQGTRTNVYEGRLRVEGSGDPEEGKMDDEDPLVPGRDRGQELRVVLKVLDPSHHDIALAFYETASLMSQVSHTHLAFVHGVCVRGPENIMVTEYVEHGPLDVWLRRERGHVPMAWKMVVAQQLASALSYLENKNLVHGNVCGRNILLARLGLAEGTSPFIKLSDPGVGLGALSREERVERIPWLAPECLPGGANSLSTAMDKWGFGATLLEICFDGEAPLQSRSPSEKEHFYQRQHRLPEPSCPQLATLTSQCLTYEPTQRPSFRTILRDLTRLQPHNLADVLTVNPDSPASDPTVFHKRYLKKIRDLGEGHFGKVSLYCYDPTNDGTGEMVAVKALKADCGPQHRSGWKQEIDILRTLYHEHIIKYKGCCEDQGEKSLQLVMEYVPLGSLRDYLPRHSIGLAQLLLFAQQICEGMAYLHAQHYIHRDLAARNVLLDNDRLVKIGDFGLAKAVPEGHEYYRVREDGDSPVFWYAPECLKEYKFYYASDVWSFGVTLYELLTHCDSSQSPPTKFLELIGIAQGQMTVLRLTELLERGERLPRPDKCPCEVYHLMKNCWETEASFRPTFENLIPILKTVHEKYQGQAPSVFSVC

Row | Structure (SMILES) | TYK2 MSD OCI-LY10 Dmax % [1] | DC50 [1] | Dmax (OCI-LY10 cells) | DC50 (OCI-LY10 cells) | TYK2 MSD OCI-LY10 Dmax % (OCI-LY10 cells)
1 | CNc1cc(N2CCc3c(-c4ccc(CN5CC6(CCN(C(=O)c7ccc(OC)c(N8CCC(=O)NC8=O)c7)CC6)C5)cn4)cccc32)nn2c(C(=O)N[C@@H]3C[C@@H]3F)cnc12 [I-64] | A (A (>90%)) | < 1 nM | – | – | –
2 | CNc1cc(N2CCc3c(-c4ccc(CN5CCC6(CCN(C(=O)c7cc(Cl)cc(N8CCC(=O)NC8=O)c7)CC6)C(F)(F)C5)cn4)cccc32)nn2c(C(=O)N[C@@H]3C[C@@H]3F)cnc12 [I-835] | B (B (90 to >75%)) | < 10 nM | – | – | –
3 | CNc1cc(N2CCc3c(C#CCN4CCC(N5CCC6(CCN(c7ccc8c(c7)n(C)c(=O)n8C7CCC(=O)NC7=O)CC6)CC5)C(F)(F)C4)cccc32)nn2c(C(=O)N[C@@H]3C[C@@H]3F)cnc12 (stereo partly drawn) [I-486, 6-(4-(3-(4-(9-(1-(2,6-Dioxopiperidin-3-yl)-3-methyl-2-oxo-2,3-dihydro-LH-benzo[d]imidazol-5-yl)-3,9-diazaspiro[5.5]undecan-3-yl)-3,3-difluoropiperidin-1-yl)prop-1-yn-1-yl)indolin-1-yl)-N-((1R,2S)-2-fluorocyclopropyl)-8-(methylamino)imidazo[1,2-b]pyridazine-3-carboxamide] | – | – | 75 to 90% | < 10 nM | –
4 | CNc1cc(N2CCc3c(-c4ccc(CN5CC6(CCC(COc7ccc(C8CCC(=O)NC8=O)c(Cl)c7)CC6)C5)cn4)cccc32)nn2c(C(=O)N[C@@H]3C[C@@H]3F)cnc12 (stereo partly drawn) [I-463] | – | – | – | > 100 nM | D (D (<50%))
5 | CNc1cc(N2CC3(CCN(CC4CCN(c5cccc6c5n(C)c(=O)n6C5CCC(=O)NC5=O)CC4)CC3)c3ccccc32)nn2c(C(=O)NC3CC3)cnc12 (stereo not drawn) [I-25] | D (D (<50%)) | > 100 nM | – | – | –
6 | CNc1cc(N2CCc3c(-c4ccc(CN5CCC6(CC5)CCN(c5ccc(C7CCC(=O)NC7=O)c(Cl)c5)CC6)cn4)cccc32)nn2c(C(=O)N[C@@H]3C[C@@H]3F)cnc12 (stereo partly drawn) [I-77] | D (D (<50%)) | < 10 nM | – | – | –
7 | CNc1cc(N2CCc3c(-c4ccc(CN5CC6(CCN(C(=O)c7ccc(Cl)c(N8CCC(=O)NC8=O)c7)CC6(F)F)C5)cn4)cccc32)nn2c(C(=O)N[C@H]3C[C@H](OC)C3)cnc12 [I-886] | B (B (90 to >75%)) | < 10 nM | – | – | –
8 | CNc1cc(N2CCc3c(-c4cc(CN5CCN(CCc6ccc(Cl)c(C7CCC(=O)NC7=O)c6)CC5)ccn4)cccc32)nn2c(C(=O)NC3CC3F)cnc12 (stereo not drawn) [I-395] | – | – | – | > 100 nM | D (D (<50%))
9 | CNc1cc(N2CCc3c(C4CCN(CC5CCC6(CC5)CCN(C(=O)c5ccc(Cl)c(N7CCC(=O)NC7=O)c5)CC6)CC4)cccc32)nn2c(C(=O)NC3CC3)cnc12 [I-56] | C (C (75 to 50%)) | < 10 nM | – | – | –
10 | CNc1cc(N2CCc3c(CN4CCC(N5CC6(CCN(C(=O)c7ccc(Cl)c(N8CCC(=O)NC8=O)c7)CC6)C5)C(F)(F)C4)cccc32)nn2c(C(=O)N[C@@H]3C[C@@H]3F)cnc12 (stereo partly drawn) [I-840] | A (A (>90%)) | < 1 nM | – | – | –
11 | COC1(c2cc(-c3ccc(CN4CCC5(CC4)CCN(C(=O)c4ccc(Cl)c(N6CCC(=O)NC6=O)c4)CC5)cn3)cc(-c3cn(C)c4cnc(NC(C)=O)cc34)n2)CCOC1 (stereo not drawn) [I-848] | A (A (>90%)) | < 1 nM | – | – | –
12 | CNc1cc(N2CCc3c(-c4ccc(CN5CC6(CCN(Cc7ccc(C)c(N8CCC(=O)NC8=O)c7)CC6(F)F)C5)cn4)cccc32)nn2c(C(=O)N[C@@H]3C[C@@H]3F)cnc12 [I-366] | D (D (<50%)) | < 10 nM | – | – | –
13 | CNc1cc(N2CCc3c(CN4CCC(CN5CCC6(CC5)CN(C(=O)c5ccc(Cl)c(N7CCC(=O)NC7=O)c5)C6)CC4)cccc32)nn2c(C(=O)N[C@@H]3C[C@@H]3F)cnc12 [I-893] | D (D (<50%)) | > 100 nM | – | – | –
14 | CNc1cc(N2CCc3c(-c4ccc(CN5CCC6(CCC(COc7ccc(N8CCC(=O)NC8=O)c(Cl)c7)CC6)CC5)cn4)cccc32)nn2c(C(=O)N[C@@H]3C[C@@H]3F)cnc12 [I-339] | D (D (<50%)) | < 10 nM | – | – | –
15 | CNc1cc(N2CCc3c(-c4ncc(CN5CC6(CCN(C(=O)c7cc(Cl)c(C)c(N8CCC(=O)NC8=O)c7)CC6(F)F)C5)cc4F)cc(F)cc32)nn2c(C(=O)N[C@@H]3C[C@@H]3F)cnc12 [I-944] | A (A (>90%)) | < 1 nM | – | – | –
16 | CNc1cc(N2CCc3c(-c4ncc(CN5CC6(CCN(C(=O)c7cc(N8CCC(=O)NC8=O)c(Cl)c(C)n7)CC6(F)F)C5)cc4F)cc(F)cc32)nn2c(C(=O)N[C@@H]3C[C@@H]3F)cnc12 [I-1150] | A (A (>90%)) | < 1 nM | – | – | –
17 | CNc1cc(N2CCc3c(CN4CCC(N5CCC(C6CCN(C(=O)c7ccc(Cl)c(N8CCC(=O)NC8=O)c7)CC6)CC5)C(F)(F)C4)cccc32)nn2c(C(=O)N[C@@H]3CC[C@H]3OC)cnc12 (stereo partly drawn) [I-1069] | A (A (>90%)) | < 1 nM | – | – | –
18 | CNc1cc(N2CCc3c(-c4ccc(CN5CCC(Oc6ccc(C7CCC(=O)NC7=O)c(Cl)c6)CC5)cn4)cccc32)nn2c(C(=O)N[C@@H]3C[C@@H]3F)cnc12 (stereo partly drawn) [I-387] | B (B (90 to >75%)) | 10 to 100 nM | – | – | –
19 | CNc1cc(N2CCc3c(CN4CCC(N5CCC(CC#Cc6cccc7c6n(C)c(=O)n7C6CCC(=O)NC6=O)CC5)C(F)(F)C4)cccc32)nn2c(C(=O)NC3CC3F)cnc12 (stereo not drawn) [I-488] | – | – | – | 10 to 100 nM | D (D (<50%))
20 | CNc1cc(N2CCc3c(-c4ccc(CC5CC6(CCN(C(c7ccc(Cl)c(N8CCC(=O)NC8=O)c7)C(F)(F)F)CC6)C5)cn4)cccc32)nn2c(C(=O)N[C@@H]3C[C@@H]3F)cnc12 (stereo partly drawn) [I-272] | D (D (<50%)) | > 100 nM | – | – | –
21 | CNc1cc(N2CCc3c(CN4CCC(N5CCC(Oc6ccc(Cl)c(N7CCC(=O)NC7=O)c6)CC5)C(F)(F)C4)cccc32)nn2c(C(=O)N[C@@H]3C[C@@H]3F)cnc12 (stereo partly drawn) [I-291] | D (D (<50%)) | > 100 nM | – | – | –
22 | CNc1cc(N2CCc3c(N4CCN(C5CN(C6CCN(C(=O)c7ccc(Cl)c(N8CCC(=O)NC8=O)c7)CC6)C5)CC4)cccc32)nn2c(C(=O)N[C@@H]3C[C@@H]3F)cnc12 [I-288] | D (D (<50%)) | > 100 nM | – | – | –
23 | CNc1cc(-c2cn(C3CN(C4CCN(C(=O)c5ccc(Cl)c(N6CCC(=O)NC6=O)c5)CC4)C3)c3ccccc23)nn2c(C(=O)N[C@@H]3C[C@@H]3F)cnc12 [I-745] | – | – | – | > 100 nM | D (D (<50%))
24 | CNc1cc(N2CCc3c(-c4ccc(CN5CC6(CCN(C(=O)c7ccc(N8CCC(=O)NC8=O)c(Cl)c7)CC6)C5)cn4)cccc32)nn2c(C(=O)N[C@@H]3C[C@@H]3F)cnc12 [I-896] | D (D (<50%)) | > 100 nM | – | – | –
25 | CNc1cc(-c2cn(C3CCN(C4CCN(C(=O)c5ccc(Cl)c(N6CCC(=O)NC6=O)c5)CC4)CC3)c3ccccc23)nn2c(C(=O)N[C@@H]3C[C@@H]3F)cnc12 [I-767] | – | – | – | > 100 nM | D (D (<50%))
26 | CNc1cc(N2CCc3c(-c4ccc(CC5CN(C6CCN(C7CCN(c8ccc9c(c8)n(C)c(=O)n9C8CCC(=O)NC8=O)CC7)CC6(F)F)C5)cn4)cccc32)nn2c(C(=O)N[C@@H]3C[C@@H]3F)cnc12 (stereo partly drawn) [I-359] | B (B (90 to >75%)) | < 1 nM | – | – | –
27 | CNc1cc(N2CCc3c(CN4CCC(N5CCC6(CC5)CN(C(=O)c5ccc(Cl)c(N7CCC(=O)NC7=O)c5)C6)C(F)(F)C4)cccc32)nn2c(C(=O)N[C@@H]3C[C@@H]3F)cnc12 (stereo partly drawn) [I-855] | A (A (>90%)) | < 1 nM | – | – | –
